PubChem BioAssay AID1963970 (Molecular Pharmacology Branch, DTP, NCI, 2024)

System: 931267-113-T-J1-PDC multicell spheroid viability
Assay: Anticancer human tumor 931267-113-T-J1-PDC patient-derived colon adenocarcinoma cell line growth inhibition [PI3K]
Conditions: for IC50: curve of first compound; for viability, T/C: stronger effect = lower value
Method in brief: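 We assembled tumor spheroids that included a stromal compartment of HUVEC and MSCs, then exposed them to targeted agents alone and together with PI3K pathway inhibitors. Concentration series descended by half-log from clinically achievable Cmax levels. Viability served as the endpoint.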
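Further: viability read 7 days after compound addition.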

`Cn1cnc2c(F)c(Nc3ccc(Br)cc3Cl)c(C(=O)NOCCO)cc21` + Cc1nc(NC(=O)N2CCCC2C(N)=O)sc1-c1ccnc(C(C)(C)C(F)(F)F)c1 gave an IC50 (second compound 0.0316 µM) of 75.8 nM, an IC50 (second compound 0.1 µM) of 80.6 nM and an IC50 (second compound 0.316 µM) of 61.6 nM. It also gave an IC50 (second compound 1 µM) of 42.1 nM, an IC50 (second compound 3.16 µM) of 19.6 nM and an IC50 (second compound 10 µM) of under 9.49 nM. The viability, T/C (second compound 0.0316 µM, first compound 0.00949 µM) was 86%, the viability, T/C (second compound 0.0316 µM, first compound 0.03 µM) was 63.5% and the viability, T/C (second compound 0.0316 µM, first compound 0.0949 µM) was 47.3%. The viability, T/C (second compound 0.0316 µM, first compound 0.3 µM) was 32.2%, the viability, T/C (second compound 0.0316 µM, first compound 0.949 µM) was 18.7% and the viability, T/C (second compound 0.0316 µM, first compound 3 µM) was 12%. It also gave a viability, T/C (second compound 0.1 µM, first compound 0.00949 µM) of 85.7%, a viability, T/C (second compound 0.1 µM, first compound 0.03 µM) of 70.2% and a viability, T/C (second compound 0.1 µM, first compound 0.0949 µM) of 44.1%. The viability, T/C (second compound 0.1 µM, first compound 0.3 µM) was 30.1%, the viability, T/C (second compound 0.1 µM, first compound 0.949 µM) was 21% and the viability, T/C (second compound 0.1 µM, first compound 3 µM) was 10.4%. It also gave a viability, T/C (second compound 0.316 µM, first compound 0.00949 µM) of 74.5%, a viability, T/C (second compound 0.316 µM, first compound 0.03 µM) of 61.5% and a viability, T/C (second compound 0.316 µM, first compound 0.0949 µM) of 43.3%. It also gave a viability, T/C (second compound 0.316 µM, first compound 0.3 µM) of 25.9%, a viability, T/C (second compound 0.316 µM, first compound 0.949 µM) of 16.6% and a viability, T/C (second compound 0.316 µM, first compound 3 µM) of 8.73%. It also gave a viability, T/C (second compound 1 µM, first compound 0.00949 µM) of 66.4%, a viability, T/C (second compound 1 µM, first compound 0.03 µM) of 60.5% and a viability, T/C (second compound 1 µM, first compound 0.0949 µM) of 29%. For the same molecule, the viability, T/C (second compound 1 µM, first compound 0.3 µM) was 20.8%, the viability, T/C (second compound 1 µM, first compound 0.949 µM) was 13.8% and the viability, T/C (second compound 1 µM, first compound 3 µM) was 5.73%. It also gave a viability, T/C (second compound 3.16 µM, first compound 0.00949 µM) of 64%, a viability, T/C (second compound 3.16 µM, first compound 0.03 µM) of 41.6% and a viability, T/C (second compound 3.16 µM, first compound 0.0949 µM) of 26.7%. It also gave a viability, T/C (second compound 3.16 µM, first compound 0.3 µM) of 15.1%, a viability, T/C (second compound 3.16 µM, first compound 0.949 µM) of 9.74% and a viability, T/C (second compound 3.16 µM, first compound 3 µM) of 5.86%. The viability, T/C (second compound 10 µM, first compound 0.00949 µM) was 49.8%, the viability, T/C (second compound 10 µM, first compound 0.03 µM) was 33.1% and the viability, T/C (second compound 10 µM, first compound 0.0949 µM) was 25.5%. It also gave a viability, T/C (second compound 10 µM, first compound 0.3 µM) of 12.2%, a viability, T/C (second compound 10 µM, first compound 0.949 µM) of 9.35% and a viability, T/C (second compound 10 µM, first compound 3 µM) of 3.2%.
